Test [1] has as its system panel of 3 sweet sensitive panelists. As to the kind of experiment: Organoleptic test of sweetness enhancement in combination with sucrose. Conditions: concentration stated to be near the sweetness detection threshold. The format is in vivo. On the procedure:
Organoleptic Test of the Compounds of Formula (I) in Combination with Known Sweeteners
Combination of (I) with Sucrose.
The sweetness enhancement properties of compound Aa and Bb was determined using a sample having a concentration of 100 μg/ml compound Aa and Bb, which is near the sweetness detection threshold, in 7% sucrose solution. The compound Aa and Bb sample was directly compared to samples of 7%, 8% or 9% sucrose, and panelists were instructed to compare the sweetness intensity of the samples. The comparisons were carried out by a panel of 3 sweet sensitive panelists. All samples were presented to panelists in 5 ml aliquots at ambient temperature. Panelists compared the compound Aa and Bb sample to each of the sucrose samples.

The test system of the next test is panel of 4 panelists. The experiment in a line: Organoleptic test of intrinsic sweet taste against sucrose. It counts as in vivo. Conditions: 0.5 mg/ml (500 ppm) in non-carbonated mineral water; for sweetness compared with a solution of sucrose 20 mg/ml (control solution): control sucrose 20 mg/ml. The protocol: Organoleptic Test of the Compounds of Formula (I) Against Sucrose
Intrinsic sweet taste: The isolated pure compounds were dissolved in non-carbonated mineral water (“Fonsana Quelle”) in a concentration of 0.5 mg/ml (500 ppm). The sweet taste of each sample was compared by a panel of 4 panelists with a solution of sucrose in a concentration of 20 mg/ml.

The record followed here is patent US10653172B2, “Natural stilbenes as sweeteners or sweetener enhancer” (Analyticon Discovery GmbH, priority 2015, dated 2020).

For `OC[C@H]1O[C@@H](Oc2ccc(/C=C/c3cc(O)cc(O)c3)cc2O)[C@H](O)[C@@H](O)[C@@H]1O` [Compound Bb, Piceatannol 4′-O-β-D-glucopyranoside], the sweetness detection threshold in test [1] was around 100 µg/mL. Besides, in the test with panel of 4 panelists, the off-taste entry is given as “no significant off-taste” and the “sweetness compared with a solution of sucrose 20 mg/ml (control solution)” value is given as “comparable with the control solution”.
On the same counts, the results for `COc1cc(/C=C/c2cc(O)cc(O)c2)ccc1O[C@@H]1O[C@H](CO)[C@@H](O)[C@H](O)[C@H]1O` [Compound Aa, Gnetifolin E] are around 100 µg/mL, “no significant off-taste” and “comparable with the control solution”.
